From patent US9321764B2, “Dihydro-pyrrolopyridinone inhibitors” (AbbVie Inc., priority 2013, dated 2016)

How the values were obtained:
[1] = tested on: breast cancer cell line MX-1; assay: MX-1 cell line proliferation assay; assay type: cell-based; details: Homo sapiens, MX1, 72 h, MX-1 cells, 3-day proliferation assay, Cell Titer Glo; read-out: Cellular proliferation EC50
Procedure: The impact of compounds of the Examples on cancer cell proliferation was determined using the breast cancer cell line MX-1 (ATCC) in a 3-day proliferation assay and the data are reported in Table 1. MX-1 cells were maintained in RPMI 1640 medium (Sigma) supplemented with 10% FBS at 37° C. and an atmosphere of 5% CO2. For compound testing, MX-1 cells were plated in 96-well black bottom plates at a density of 5000 cells/well in 90 μL of culture media and incubated at 37° overnight to allow cell adhesion and spreading. Compound dilution series were prepared in DMSO via a 3-fold serial dilution from 3 mM to 0.1 μM. The DMSO dilution series were then diluted 1:100 in phosphate buffered saline, and 10 μL of the resulted solution were added to the appropriate wells of the MX-1 cell plate. The final compound concentrations in the wells were 3, 1, 0.3, 0.1, 0.03, 0.01, 0.003, 0.001, 0.0003 and 0.0001 μM.
Luminescence readings from the Cell Titer Glo assay were normalized to the DMSO treated cells and analyzed using the GraphPad Prism software with sigmoidal curve fitting to obtain EC50s. The minimum significant ratio (MSR) was determined to evaluate assay reproducibility (Eastwood et al., (2006) J Biomol Screen, 11: 253-261).

BRD4 (BDI_K57-E168) = target: T1, BRD4 (BDI_K57-E168) (Homo sapiens, UniProt O60885); assay: TR-FRET bromodomain binding assay, first bromodomain of BRD4; details: His-tagged BD1, 100 nM Alexa647 probe; TR-FRET protocol A-E given per row
T1 construct: BD1: amino acids K57-E168; made in house
In short: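 Ki values come from IC50s (4-parameter logistic) corrected for probe Kd and concentration, normalised to no-compound and 1 μM unlabelled probe controls. Probe displacement by TR-FRET used 8 nM BD1 (K57-E168), 100 nM Alexa647 probe, 1 nM Eu-anti-His, 20 mM phosphate pH 6.0, 2% DMSO, 1 h, room temperature.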

BRD4 (BDII_E352-M457) = target: T2, BRD4 (BDII_E352-M457) (Homo sapiens, UniProt O60885); assay: TR-FRET bromodomain binding assay, second bromodomain of BRD4; details: His-tagged BD2, 30 nM Alexa647 probe; TR-FRET protocol A-E given per row
T2 construct: proliferation; Protocol; made in house
In short: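 His-tagged BRD4 BD2 ([…]) competed against an Alexa647-labelled BET-inhibitor probe in TR-FRET. Buffer was 20 mM sodium phosphate pH 6.0, 50 mM NaCl, 1 mM EDTA, 0.01% Triton X-100, 1 mM DTT, with method D DMSO series of 2.5 mM–800 nM (stock range). IC50 from 4-parameter fit, Ki from probe Kd and concentration.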

EC50 [1] [nM]	Ki (BRD4 (BDI_K57-E168)) [nM]	Ki (BRD4 (BDII_E352-M457)) [nM]	Structure (SMILES)
> 3000	1410	1200	Cn1cc(-c2cc(CNCCC(C)(C)C)ccc2Oc2ccc(F)cc2F)c2cc[nH]c(=O)c21 [Example 114, 3-[2-(2,4-difluorophenoxy)-5-{[(3,3-dimethylbutyl)amino]methyl}phenyl]-1-methyl-1,6-dihydro-7H-pyrrolo[2,3-c]pyridin-7-one]
> 1000	34.9	59.3	Cn1cc(-c2cc(NS(=O)(=O)Cc3ccccc3)ccc2Oc2ccc(F)cc2F)c2cc[nH]c(=O)c21 [Example 180, N-[4-(2,4-difluorophenoxy)-3-(1-methyl-7-oxo-6,7-dihydro-1H-pyrrolo[2,3-c]pyridin-3-yl)phenyl]-1-phenylmethanesulfonamide]
> 3000	72	107	Cn1cc(-c2cc(CS(=O)(=O)Nc3nccs3)ccc2Oc2ccc(F)cc2F)c2cc[nH]c(=O)c21 [Example 104, 1-[4-(2,4-difluorophenoxy)-3-(1-methyl-7-oxo-6,7-dihydro-1H-pyrrolo[2,3-c]pyridin-3-yl)phenyl]-N-(1,3-thiazol-2-yl)methanesulfonamide]
125	18	43	Cn1cc(-c2cc(S(C)(=O)=O)ccc2Oc2ccc(F)cc2)c2cc[nH]c(=O)c21 [Example 61, 3-[2-(4-fluorophenoxy)-5-(methylsulfonyl)phenyl]-1-methyl-1,6-dihydro-7H-pyrrolo[2,3-c]pyridin-7-one]
947	619	476	Cn1cc(-c2cc(CNCc3ccoc3)ccc2Oc2ccc(F)cc2F)c2cc[nH]c(=O)c21 [Example 127, 3-[2-(2,4-difluorophenoxy)-5-{[(furan-3-ylmethyl)amino]methyl}phenyl]-1-methyl-1,6-dihydro-7H-pyrrolo[2,3-c]pyridin-7-one]
806	528	329	Cn1cc(-c2cc(CN3CCNCC3)ccc2Oc2ccc(F)cc2F)c2cc[nH]c(=O)c21 [Example 105, 3-[2-(2,4-difluorophenoxy)-5-(piperazin-1-ylmethyl)phenyl]-1-methyl-1,6-dihydro-7H-pyrrolo[2,3-c]pyridin-7-one]
30.9	1.66	9.64	CCS(=O)(=O)Nc1ccc(Oc2ccc(F)cc2F)c(-c2cn(C)c3c(=O)[nH]c(C(=O)NCCN4CCOCC4)cc23)c1 [Example 196, 3-{2-(2,4-difluorophenoxy)-5-[(ethylsulfonyl)amino]phenyl}-1-methyl-N-[2-(morpholin-4-yl)ethyl]-7-oxo-6,7-dihydro-1H-pyrrolo[2,3-c]pyridine-5-carboxamide]
713	908	337	Cn1cc(-c2cc(CN3CCC(N)CC3)ccc2Oc2ccc(F)cc2F)c2cc[nH]c(=O)c21 [Example 111, 3-{5-[(4-aminopiperidin-1-yl)methyl]-2-(2,4-difluorophenoxy)phenyl}-1-methyl-1,6-dihydro-7H-pyrrolo[2,3-c]pyridin-7-one]
> 3000	45	1380	CC(=O)N1CCC(Oc2ccc(S(C)(=O)=O)cc2-c2cn(C)c3c(=O)[nH]ccc23)CC1 [Example 67, 3-{2-[(1-acetylpiperidin-4-yl)oxy]-5-(methylsulfonyl)phenyl}-1-methyl-1,6-dihydro-7H-pyrrolo[2,3-c]pyridin-7-one]
114	14	40	CCS(=O)(=O)c1ccc(Oc2ccc(Cl)cc2)c(-c2cn(C)c3c(=O)[nH]ccc23)c1 [Example 48, 3-[2-(4-chlorophenoxy)-5-(ethylsulfonyl)phenyl]-1-methyl-1,6-dihydro-7H-pyrrolo[2,3-c]pyridin-7-one]
98.3	5.82	16.3	Cn1cc(-c2cc(CS(C)(=O)=O)cc(C3CC3)c2Nc2ccc(F)cc2F)c2cc[nH]c(=O)c21 [Example 202, 3-{3-cyclopropyl-2-[(2,4-difluorophenyl)amino]-5-[(methylsulfonyl)methyl]phenyl}-1-methyl-1,6-dihydro-7H-pyrrolo[2,3-c]pyridin-7-one]
267	69	92	Cn1cc(-c2cc(S(=O)(=O)N3CC(F)(F)C3)ccc2OCC2CC2)c2cc[nH]c(=O)c21 [Example 125, 3-{2-(cyclopropylmethoxy)-5-[(3,3-difluoroazetidin-1-yl)sulfonyl]phenyl}-1-methyl-1,6-dihydro-7H-pyrrolo[2,3-c]pyridin-7-one]
479	205	1090	Cn1cc(-c2cc(S(C)(=O)=O)ccc2NCc2ccc(C#N)cc2)c2cc[nH]c(=O)c21 [Example 46, 4-({[2-(1-methyl-7-oxo-6,7-dihydro-1H-pyrrolo[2,3-c]pyridin-3-yl)-4-(methylsulfonyl)phenyl]amino}methyl)benzonitrile]
96	54	39	CCS(=O)(=O)c1ccc(Oc2c(C)nn(C)c2C)c(-c2cn(C)c3c(=O)[nH]ccc23)c1 [Example 90, 3-{5-(ethylsulfonyl)-2-[(1,3,5-trimethyl-1H-pyrazol-4-yl)oxy]phenyl}-1-methyl-1,6-dihydro-7H-pyrrolo[2,3-c]pyridin-7-one]
> 3000	133	248	COc1cccc(CNc2ccc(Oc3ccc(F)cc3F)c(-c3cn(C)c4c(=O)[nH]ccc34)c2)c1OCc1ccccc1 [Example 177, 3-[5-{[2-(benzyloxy)-3-methoxybenzyl]amino}-2-(2,4-difluorophenoxy)phenyl]-1-methyl-1,6-dihydro-7H-pyrrolo[2,3-c]pyridin-7-one]
1400	281	1250	Cn1cc(-c2cc(CNS(=O)(=O)Cc3ccc(Cl)cc3)ccc2Oc2ccc(F)cc2F)c2cc[nH]c(=O)c21 [Example 131, 1-(4-chlorophenyl)-N-[4-(2,4-difluorophenoxy)-3-(1-methyl-7-oxo-6,7-dihydro-1H-pyrrolo[2,3-c]pyridin-3-yl)benzyl]methanesulfonamide]
61.4	4.29	7.94	CCS(=O)(=O)Nc1ccc(Oc2ccc(F)cc2F)c(-c2cn(C)c3c(=O)[nH]c(C4CCN(C(=O)C5CC5)CC4)cc23)c1 [Example 185, N-[3-{5-[1-(cyclopropylcarbonyl)piperidin-4-yl]-1-methyl-7-oxo-6,7-dihydro-1H-pyrrolo[2,3-c]pyridin-3-yl}-4-(2,4-difluorophenoxy)phenyl]ethanesulfonamide]
338	31	67	CCS(=O)(=O)NCc1ccc(Oc2ccc(F)cc2F)c(-c2cn(C)c3c(=O)[nH]ccc23)c1 [Example 106, N-[4-(2,4-difluorophenoxy)-3-(1-methyl-7-oxo-6,7-dihydro-1H-pyrrolo[2,3-c]pyridin-3-yl)benzyl]ethanesulfonamide]
5	2.2	2.5	CN(C)S(=O)(=O)Cc1ccc(Oc2ccc(F)cc2F)c(-c2cn(C)c3c(=O)[nH]ccc23)c1 [Example 101, 1-[4-(2,4-difluorophenoxy)-3-(1-methyl-7-oxo-6,7-dihydro-1H-pyrrolo[2,3-c]pyridin-3-yl)phenyl]-N,N-dimethylmethanesulfonamide]
1420	1350	1330	COC1CCN(Cc2ccc(Oc3ccc(F)cc3F)c(-c3cn(C)c4c(=O)[nH]ccc34)c2)CC1 [Example 115, 3-{2-(2,4-difluorophenoxy)-5-[(4-methoxypiperidin-1-yl)methyl]phenyl}-1-methyl-1,6-dihydro-7H-pyrrolo[2,3-c]pyridin-7-one]
225	18	142	CCS(=O)(=O)Nc1ccc(OC2COC2)c(-c2cn(C)c3c(=O)[nH]ccc23)c1 [Example 10, N-[3-(1-methyl-7-oxo-6,7-dihydro-1H-pyrrolo[2,3-c]pyridin-3-yl)-4-(oxetan-3-yloxy)phenyl]ethanesulfonamide]
> 1000	65.8	128	Cn1cc(-c2cc(NS(=O)(=O)Cc3cc(F)ccc3Cl)ccc2Oc2ccc(F)cc2F)c2cc[nH]c(=O)c21 [Example 181, 1-(2-chloro-5-fluorophenyl)-N-[4-(2,4-difluorophenoxy)-3-(1-methyl-7-oxo-6,7-dihydro-1H-pyrrolo[2,3-c]pyridin-3-yl)phenyl]methanesulfonamide]
